Measurements from patent US20090170762A1, “Treatment of Diabetes Related Obesity” (UUTech Limited, priority 2005, published 2009).
Ends that are not written are not given here.

What was measured:
BRIN-BD11 cells = assay: Insulin secretion from BRIN-BD11 cells; assay type: cell-based; settings: for Maximal insulin response (% GIP max) / Insulin response in presence of 10^-7 M GIP (% GIP max): 5.6 mm glucose; for Maximal insulin response (% GIP max): 20 min; for Insulin response in presence of 10^-7 M GIP (% GIP max): in presence of 10^-7 M native GIP; for effect on GIP-stimulated insulin secretion: in presence of GIP (10^-7 m)
Description: (§1) Tissue Culture. Chinese Hamster Lung (CHL) fibroblast cells stably transfected with the human GIP-R were cultured in DMEM tissue culture medium containing 10%. (v/v) fetal bovine serum, 1% (v/v) antibiotics (100 U/ml penicillin, 0.1 mg/ml streptomycin) (all from Gibco, Paisley, Strathclyde, Scotland). BRIN-BD11 cells were cultured in RPMI-1640 tissue culture medium containing 10% (v/v) fetal bovine serum, 1% (v/v) antibiotics (100 U/ml penicillin, 0.1 mg/ml streptomycin) and 11.1 mm glucose. The origin and secretory characteristics of these cells have been described in detail previously (McClenaghan, N. H. et al., 1996, Diabetes 45:1132-1140). The cells were maintained in sterile tissue culture flasks (Corning Glass Works, Sunderland, UK) at 37° C. in an atmosphere of 5% CO2 and 95% air using a LEEC incubator (Laboratory Technical Engineering, Nottingham, UK).
Methods. Insulin release from BRIN-BD11 cells was determined by use of cell monolayers as described previously (Gault, V. A. et al. 2002, Biochem. J. 367:913-920). In brief, BRIN-BD11 cells were seeded into 24-well plates (Nunc, Roskilde, Denmark) at a density of 1.5×10^5 cells per well and allowed to attach overnight in RPMI-1640 culture medium at 37° C. Acute tests for insulin secretion were preceded by 40 minutes pre-incubation at 37° C. in 1.0 ml Krebs Ringer Bicarbonate Buffer (KRBB, 115 mm NaCl, 4.7 mm KCl, 1.28 mm CaCl2, 1.2 mM MgSO4, 1.2 mm KH2PO4, 25 mM HEPES and 10 mm NaHCO3; pH 7.4 with NaOH) supplemented with 0.1% (w/v) BSA and 1.1 mM glucose. […] After 20 minutes incubation, the buffer was removed and used for measurement of insulin by radioimmunoassay (Flatt, P. R. and Bailey, C. J., 1981, Diabetologia 5:573-577).

ob/ob mice = assay: Acute antihyperglycaemic and insulin releasing activity with glucose and native GIP in ob/ob mice; assay type: in vivo, mouse; settings: for plasma glucose and insulin profiles when administered together with native GIP: 25 nmol/kg i.p. with GIP and glucose 18 mmol/kg, vs native GIP
Description: Animals. Obese diabetic (ob/ob) mice derived from the colony maintained at Aston University, UK (Bailey C. J. et al., 1982, Int. J. Obes. 6:11-21) were used at 14-18 weeks of age. Animals were age-matched, divided into groups and housed individually in an air-conditioned room at 22±2° C. with a 12 hour light: 12 hour dark cycle (08:00-20:00 hr). Drinking water and a standard rodent maintenance diet (Trouw Nutrition, Cheshire, UK) were freely available. All animal experiments were carried out in accordance with the UK Animals (Scientific Procedures) Act 1986.
Biochemical analysis. Plasma glucose was assayed by an automated glucose oxidase procedure ([…]) using a Beckman Glucose Analyzer II (Beckman Instruments, Galway, Ireland). Plasma insulin was assayed by radioimmunoassay.
Methods. […] All test solutions were administered in a final volume of 5 ml/kg body weight. Blood samples were collected from the cut tip of the tail vein of conscious mice into chilled fluoride/heparin coated glucose microcentrifuge tubes (Sarstedt, Numbrecht, Germany) immediately prior to injection and at 15, 30 and 60 minutes post injection. Blood samples were immediately centrifuged using a Beckmnan microcentrifuge (Beckman Instruments, High Wycombe, Buckinghamshire, UK) for 30 seconds at 13,000×g. Plasma glucose was assayed using a Beckman Glucose Analyzer n (Beckman Instruments, High Wycombe, Buckinghamshire, UK) (Stevens, J. F., 1971, Clin. Chim. Acta 32:199-201) and plasma insulin was determined by RIA (Flatt, P. R. and Bailey, C. J., 1981, Diabetologia 5:573-577). All animal studies were carried out in accordance with the UK Animals (Scientific Procedures) Act 1986.

DPP-IV = DPP-IV (Homo sapiens, UniProt P27487); assay: Degradation of GIP and Glu3-substituted GIP analogs by DPP-IV (HPLC); assay type: in vitro ADME; settings: for half-life at 2 μm: DPP-IV enzyme (5 mU) in buffer, pH 7.8, incubation with DPP-IV, unit not given (time points in hrs), read-out: Estimated Half-Life (converted); for Intact Peptide Remaining (%) 0 hrs. / remaining at 2 h, 2 μm / remaining at 4 h, 2 μm / remaining at 8 h, 2 μm: incubation with DPP-IV (5 mU), 37°C; for Intact Peptide Remaining (%) 0 hrs.: pH 7.8, 0 hrs; for remaining at 2 h, 2 μm / remaining at 4 h, 2 μm / remaining at 8 h, 2 μm: isolated DPP-IV enzyme (5 mU); for remaining at 2 h, 2 μm: pH 7.8, 2 hrs, read-out: Intact Peptide Remaining (%) 2 hrs.; for remaining at 4 h, 2 μm: pH 7.8, 4 hrs, read-out: Intact Peptide Remaining (%) 4 hrs.; for remaining at 8 h, 2 μm: pH 7.8, 8 hrs, read-out: Intact Peptide Remaining (%) 8 hrs.; for resistance to DPP-IV degradation: words, up to 8 hours incubation
Sequence of DPP-IV (P27487 whole entry, species assumed): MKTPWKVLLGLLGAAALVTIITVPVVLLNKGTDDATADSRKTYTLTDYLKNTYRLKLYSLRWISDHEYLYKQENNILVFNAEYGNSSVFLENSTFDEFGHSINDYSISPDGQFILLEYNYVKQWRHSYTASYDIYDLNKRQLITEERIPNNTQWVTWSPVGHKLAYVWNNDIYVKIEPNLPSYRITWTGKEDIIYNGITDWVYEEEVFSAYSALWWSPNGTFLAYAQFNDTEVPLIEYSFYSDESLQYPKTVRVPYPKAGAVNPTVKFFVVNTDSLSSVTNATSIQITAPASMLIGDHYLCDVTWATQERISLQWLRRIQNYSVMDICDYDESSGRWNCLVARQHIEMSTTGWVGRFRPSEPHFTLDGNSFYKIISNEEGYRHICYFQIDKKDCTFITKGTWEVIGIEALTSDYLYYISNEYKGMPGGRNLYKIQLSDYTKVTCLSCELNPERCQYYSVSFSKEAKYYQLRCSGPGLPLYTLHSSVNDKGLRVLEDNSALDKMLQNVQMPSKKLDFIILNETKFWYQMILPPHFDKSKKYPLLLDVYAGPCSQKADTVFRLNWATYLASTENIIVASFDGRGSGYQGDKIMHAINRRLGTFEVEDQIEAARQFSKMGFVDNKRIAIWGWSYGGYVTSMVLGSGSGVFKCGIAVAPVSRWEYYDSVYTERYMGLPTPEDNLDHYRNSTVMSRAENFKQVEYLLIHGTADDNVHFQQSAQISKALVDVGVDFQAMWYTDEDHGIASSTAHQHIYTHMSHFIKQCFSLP

human GIP-R = target: T1, human GIP-R (Homo sapiens, UniProt P48546); assay: Cyclic AMP production in GIP-R transfected CHL cells; assay type: cell-based; settings: for remaining activity at 0.1 µM: CHL, read-out: cAMP response in presence of 10^-7 M GIP (% GIP max); for inhibition of GIP-stimulated cAMP production: in presence of GIP (10^-7 m)
T1 construct: expressed in transfected cells; host or cells: Chinese Hamster Lung (CHL) fibroblast cells, stably transfected
T1 sequence (P48546 22-466): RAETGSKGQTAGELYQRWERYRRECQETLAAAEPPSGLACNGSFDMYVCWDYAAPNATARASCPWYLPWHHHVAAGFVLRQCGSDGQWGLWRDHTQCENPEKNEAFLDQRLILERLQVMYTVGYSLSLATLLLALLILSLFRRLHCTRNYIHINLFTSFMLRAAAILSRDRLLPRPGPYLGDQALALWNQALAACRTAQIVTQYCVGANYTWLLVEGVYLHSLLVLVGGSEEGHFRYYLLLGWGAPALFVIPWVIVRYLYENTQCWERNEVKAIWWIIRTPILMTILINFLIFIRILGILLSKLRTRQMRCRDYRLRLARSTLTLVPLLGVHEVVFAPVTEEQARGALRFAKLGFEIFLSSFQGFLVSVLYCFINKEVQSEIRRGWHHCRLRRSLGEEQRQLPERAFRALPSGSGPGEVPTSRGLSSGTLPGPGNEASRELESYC
Description: as §1, with “Chinese Hamster Lung (CHL) fibroblast cells stably transfected with the human GIP-R were cultured in DMEM tissue culture medium containing 10%.” left out
Methods. […] The culture medium was removed and cells subsequently washed twice with 2 ml ice-cold HBS buffer (130 mm NaCl, 20 mm HEPES, 0.9 mm NaHPO4, 0.8 mm MgSO4, 5.4 mm KCl, 1.8 mm CaCl2, 5.6 mm glucose and 25 μm phenol red) (pH 7.4). […] The medium was subsequently removed and the cells lysed with […] of lysing solution (5% TCA, 3% SDS, 92% H2O, also containing 0.1 mm unlabelled cAMP and 0.1 mm unlabelled ATP) (Sigma, Poole, Dorset, UK). The plates were then left on a shaker at room temperature for 30 minutes and tritiated cAMP formation determined by column chromatography using Dowex and alumina ion exchange columns (BioRad Life Science Research, Alpha Analytical, Larne, UK) as previously described (Gault, V. A. et al 2002, Biochem. J. 367:913-920).

| Molecule | Maximal insulin response (% GIP max) (BRIN-BD11 cells; BRIN-BD11 cells) | Insulin response in presence of 10^-7 M GIP (% GIP max) (BRIN-BD11 cells; BRIN-BD11 cells) | glycaemic excursion and insulin response (ob/ob mice; compared with i.p. glucose alone) | half-life at 2 μm (DPP-IV) | Intact Peptide Remaining (%) 0 hrs. (DPP-IV) | remaining at 2 h, 2 μm (DPP-IV) | remaining at 4 h, 2 μm (DPP-IV) | remaining at 8 h, 2 μm (DPP-IV) | resistance to DPP-IV degradation (DPP-IV) | stimulation of insulin secretion compared with control incubations (BRIN-BD11 cells; BRIN-BD11 cells, vs 5.6 mm glucose alone) | effect on GIP-stimulated insulin secretion (BRIN-BD11 cells) | EC50 (human GIP-R) | remaining activity at 0.1 µM (human GIP-R) | inhibition of GIP-stimulated cAMP production (human GIP-R) | plasma glucose and insulin profiles when administered together with native GIP (ob/ob mice) |
| --- | --- | --- | --- | --- | --- | --- | --- | --- | --- | --- | --- | --- | --- | --- | --- |
| CC[C@H](C)[C@H](NC(=O)[C@H](CO)NC(=O)[C@H](Cc1ccc(O)cc1)NC(=O)[C@H](CC(=O)O)NC(=O)[C@H](CO)NC(=O)[C@@H](NC(=O)[C@H](Cc1ccccc1)NC(=O)[C@@H](NC(=O)CNC(=O)[C@H](CCC(=O)O)NC(=O)[C@H](C)NC(=O)[C@@H](N)Cc1ccc(O)cc1)[C@@H](C)O)[C@@H](C)CC)C(=O)N[C@@H](C)C(=O)N[C@@H](CCSC)C(=O)N[C@@H](CC(=O)O)C(=O)N[C@@H](CCCCN)C(=O)N[C@H](C(=O)N[C@@H](Cc1c[nH]cn1)C(=O)N[C@@H](CCC(N)=O)C(=O)N[C@@H](CCC(N)=O)C(=O)N[C@@H](CC(=O)O)C(=O)N[C@@H](Cc1ccccc1)C(=O)N[C@H](C(=O)N[C@@H](CC(N)=O)C(=O)N[C@@H](Cc1c[nH]c2ccccc12)C(=O)N[C@@H](CC(C)C)C(=O)N[C@@H](CC(C)C)C(=O)N[C@@H](C)C(=O)N[C@@H](CCC(N)=O)C(=O)N[C@@H](CCCCN)C(=O)NCC(=O)N[C@@H](CCCCN)C(=O)N[C@@H](CCCCN)C(=O)N[C@@H](CC(N)=O)C(=O)N[C@@H](CC(=O)O)C(=O)N[C@@H](Cc1c[nH]c2ccccc12)C(=O)N[C@@H](CCCCN)C(=O)N[C@@H](Cc1c[nH]cn1)C(=O)N[C@@H](CC(N)=O)C(=O)N[C@H](C(=O)N[C@H](C(=O)N[C@@H](CCC(N)=O)C(=O)O)[C@@H](C)O)[C@@H](C)CC)C(C)C)[C@@H](C)CC [GIP, reference compound] | 100 % GIP max | 100 % GIP max | decreased the glycaemic excursion and enhanced insulin response | 1.3 h | 100% | 20.9 ± 1.6% | 4.9 ± 1.2% | 0% | complete degradation by 8 hours | – | – | – | – | – | – |
| YAAGTFISDYSIAMDKIHQQDFVNWLLAQKGKKNDWKHNITQ [(Ala^3)GIP] | 111 ± 6 % GIP max | 115 ± 3 % GIP max | – | 1.1 h | 100% | 5.9 ± 1.7% | 2.7 ± 0.1% | 0% | least resistant | 1.7 fold | did not significantly affect | 2.3 nM | 88 ± 3% | did not significantly inhibit | significantly inhibited the action of GIP |
| YAFGTFISDYSIAMDKIHQQDFVNWLLAQKGKKNDWKHNITQ [(Phe^3)GIP] | 75 ± 3 % GIP max | 73 ± 3 % GIP max | – | 1.2 h | 100% | 15 ± 5.2% | 2.5 ± 0.1% | 0% | – | – | significantly inhibited | 1 nM | 62 ± 3% | significantly inhibited | significantly inhibited the action of GIP |
| YAKGTFISDYSIAMDKIHQQDFVNWLLAQKGKKNDWKHNITQ [(Lys^3)GIP] | 78 ± 3 % GIP max | 78 ± 4 % GIP max | – | 1.7 h | 100% | 41.4 ± 0.3% | 14.9 ± 1.1% | 0% | significantly more resistant | – | significantly inhibited | 2.6 nM | 63.5 ± 4% | significantly inhibited | did not significantly alter |
| YAWGTFISDYSIAMDKIHQQDFVNWLLAQKGKKNDWKHNITQ [(Trp^3)GIP] | 73 ± 2 % GIP max | 100 ± 5 % GIP max | – | 1.3 h | 100% | 22.5 ± 1.7% | 4.7 ± 2.4% | 0% | – | – | did not significantly affect | 3 nM | 78 ± 2% | did not significantly inhibit | did not significantly alter |
